Experimental data taken from US12139520B2 (priority 2020, dated 2024).
Bridge positions count the residues as written; N and C are the ends. Square brackets hold non-standard residues; d marks the D form. Peptide text beside a SMILES is read from it. Hyp = O=C(O)[C@@H]1C[C@@H](O)CN1; Cit = NC(=O)NCCC[C@H](N)C(=O)O

Legend:
[1] = Physical stability of peptide analogues (Thioflavin T fibrillation); assay type: physicochemical; settings: maximum ThT signal normalized between hAMY maximum and buffer background; 40° C., shaking, four days; pH 7 per table title
Method in brief: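 ThT fluorescence (450 nm excitation, 480 nm emission; 4 μM dye) was read every 10 min over four days at 40° C under 700 rpm shaking stress, after 1 h in pH 4 acetate or pH 7 phosphate (50 mM). Peak smoothed signal expressed as percent, scaled between buffer background and hAMY maximum.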

hAM1 receptor = hAM1 receptor (Homo sapiens, UniProt O60895+Q16602); experiment: cAMP assay for in vitro receptor activation, hAM1-R; assay type: cell-based; settings: cAMP assay, hAM1 receptor; read-out: hAM1R EC50
Sequence of hAM1 receptor (Q16602 23-461): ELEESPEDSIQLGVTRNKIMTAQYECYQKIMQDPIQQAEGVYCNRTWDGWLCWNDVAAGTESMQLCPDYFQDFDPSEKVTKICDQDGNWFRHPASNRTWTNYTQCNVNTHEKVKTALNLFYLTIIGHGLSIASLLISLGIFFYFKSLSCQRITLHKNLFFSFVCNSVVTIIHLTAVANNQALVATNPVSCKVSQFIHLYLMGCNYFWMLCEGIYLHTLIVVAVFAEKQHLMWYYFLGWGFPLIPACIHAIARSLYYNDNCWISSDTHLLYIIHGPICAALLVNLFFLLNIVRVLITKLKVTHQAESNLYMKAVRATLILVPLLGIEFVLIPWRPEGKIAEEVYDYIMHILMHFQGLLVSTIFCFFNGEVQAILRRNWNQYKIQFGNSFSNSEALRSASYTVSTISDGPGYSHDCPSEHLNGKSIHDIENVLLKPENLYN
Sequence of hAM1 receptor (O60895 43-175 partner): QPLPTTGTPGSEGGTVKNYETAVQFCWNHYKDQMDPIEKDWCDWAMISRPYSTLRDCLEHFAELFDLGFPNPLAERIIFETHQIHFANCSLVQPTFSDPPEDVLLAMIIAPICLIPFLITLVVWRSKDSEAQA
Method in brief: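 Monoclonal stable hAM1-overexpressing cells, thawed from frozen stock; 8000 cells/well in DPBS + 0.05% casein + 0.5 mM IBMX; read-out cAMP.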

| SMILES | Max ThT signal (%) [1] [%] | EC50 (hAM1 receptor) [µM] |
| --- | --- | --- |
| CC[C@H](C)[C@@H]1NC(=O)[C@H](CCCNC(=N)N)NC(=O)[C@@H](NC(=O)CN)CSSC[C@@H](C(=O)N[C@H](C(=O)N[C@H](C(=O)N[C@@H](CCC(N)=O)C(=O)N[C@@H](CCCNC(N)=O)C(=O)N[C@@H](CC(C)C)C(=O)N[C@@H](C)C(=O)N[C@@H](Cc2c[nH]cn2)C(=O)N[C@@H](CCC(N)=O)C(=O)N[C@H](C(=O)N[C@@H](Cc2ccc(O)cc2)C(=O)N[C@@H](CCC(N)=O)C(=O)N[C@@H](Cc2ccccc2)C(=O)N[C@H](C(=O)N[C@@H](CC(=O)O)C(=O)N[C@@H](CCCCN)C(=O)N[C@@H](Cc2ccccc2)C(=O)N[C@@H](CCCCN)C(=O)N[C@@H](CC(=O)O)C(=O)N[C@@H](CC(N)=O)C(=O)N[C@H](C(=O)N[C@@H](C)C(=O)N2CCC[C@H]2C(=O)N[C@@H](CCCNC(=N)N)C(=O)N[C@@H](CO)C(=O)N[C@@H](CCCCN)C(=O)N[C@H](C(=O)N[C@@H](CO)C(=O)N2CCC[C@H]2C(=O)N[C@@H](CCC(N)=O)C(=O)N[C@H](C(=O)N2C[C@H](O)C[C@H]2C(N)=O)[C@@H](C)O)[C@@H](C)CC)C(C)C)[C@@H](C)O)[C@@H](C)CC)C(C)C)[C@@H](C)O)NC(=O)[C@H]([C@@H](C)O)NC(=O)CNC1=O [compound 295] (H-GCRIGTCTVQ[Cit]LAHQIYQFTDKFKDNVAPRSKISPQT[Hyp]-NH2; disulfide 2-7; N-terminus assumed) | 19.450 | > 5 |
| CC[C@H](C)[C@H](NC(=O)[C@H](CCC(N)=O)NC(=O)[C@H](Cc1c[nH]cn1)NC(=O)[C@H](C)NC(=O)[C@H](CC(C)C)NC(=O)[C@H](CCCNC(N)=O)NC(=O)[C@H](CCC(N)=O)NC(=O)[C@@H](NC(=O)[C@@H](NC(=O)[C@@H]1CSSC[C@H](NC(=O)CN)C(=O)N[C@@H](CCCNC(=N)N)C(=O)N[C@@H]([C@@H](C)O)C(=O)NCC(=O)N[C@@H]([C@@H](C)O)C(=O)N1)[C@@H](C)O)C(C)C)C(=O)N[C@@H](Cc1ccc(O)cc1)C(=O)N[C@@H](CCC(N)=O)C(=O)N[C@@H](Cc1ccccc1)C(=O)N[C@H](C(=O)N[C@@H](CC(=O)O)C(=O)N[C@@H](CCCCN)C(=O)N[C@@H](CC(=O)O)C(=O)N[C@@H](CCCCN)C(=O)N[C@@H](CC(=O)O)C(=O)N[C@@H](CC(N)=O)C(=O)N[C@H](C(=O)N[C@@H](C)C(=O)N1CCC[C@H]1C(=O)N[C@@H](CCCNC(=N)N)C(=O)N[C@@H](CO)C(=O)N[C@@H](CC(N)=O)C(=O)N[C@H](C(=O)N[C@@H](CO)C(=O)N1CCC[C@H]1C(=O)N[C@@H](CC(N)=O)C(=O)NCC(=O)N1C[C@H](O)C[C@H]1C(N)=O)C(C)C)C(C)C)[C@@H](C)O [compound 304] (H-GCRTGTCTVQ[Cit]LAHQIYQFTDKDKDNVAPRSNVSPNG[Hyp]-NH2; disulfide 2-7) | 22.350 | > 5 |
| CC[C@H](C)[C@H](NC(=O)[C@H](CCCCN)NC(=O)[C@H](CO)NC(=O)[C@H](CCCNC(=N)N)NC(=O)[C@@H]1CCCN1C(=O)[C@H](C)NC(=O)[C@@H](NC(=O)[C@H](CC(N)=O)NC(=O)[C@H](CC(=O)O)NC(=O)[C@H](CCCCN)NC(=O)[C@H](CC(=O)O)NC(=O)[C@H](CCCCN)NC(=O)[C@H](CC(=O)O)NC(=O)[C@@H](NC(=O)[C@H](Cc1ccccc1)NC(=O)[C@H](CCC(N)=O)NC(=O)[C@H](Cc1ccc(O)cc1)NC(=O)[C@H](CC(C)C)NC(=O)[C@H](CCC(N)=O)NC(=O)[C@H](Cc1c[nH]cn1)NC(=O)[C@H](C)NC(=O)[C@H](CC(C)C)NC(=O)[C@H](CCCNC(=N)N)NC(=O)[C@H](CCC(N)=O)NC(=O)[C@@H](NC(=O)[C@@H](NC(=O)[C@@H]1CSSC[C@H](NC(=O)CN)C(=O)N[C@@H](CCCNC(=N)N)C(=O)N[C@@H](Cc2ccccc2)C(=O)NCC(=O)N[C@@H]([C@@H](C)O)C(=O)N1)[C@@H](C)O)C(C)C)[C@@H](C)O)C(C)C)C(=O)N[C@@H](CO)C(=O)N1CCC[C@H]1C(=O)N[C@@H](CCC(N)=O)C(=O)N[C@H](C(=O)N1C[C@H](O)C[C@H]1C(N)=O)[C@@H](C)O [compound 217] (H-GCRFGTCTVQRLAHQLYQFTDKDKDNVAPRSKISPQT[Hyp]-NH2; disulfide 2-7; N-terminus assumed) | 13.800 | > 5 |
| CC[C@H](C)[C@H](NC(=O)[C@H](CCC(N)=O)NC(=O)[C@H](Cc1c[nH]cn1)NC(=O)[C@H](C)NC(=O)[C@H](CC(C)C)NC(=O)[C@H](CCCNC(=N)N)NC(=O)[C@H](CCC(N)=O)NC(=O)[C@@H](NC(=O)[C@@H](NC(=O)[C@@H]1CSSC[C@H](NC(=O)CN)C(=O)N[C@@H](CCCNC(=N)N)C(=O)N[C@@H]([C@@H](C)O)C(=O)NCC(=O)N[C@@H]([C@@H](C)O)C(=O)N1)[C@@H](C)O)C(C)C)C(=O)N[C@@H](Cc1c[nH]cn1)C(=O)N[C@@H](CCC(N)=O)C(=O)N[C@@H](Cc1ccccc1)C(=O)N[C@H](C(=O)N[C@@H](CC(=O)O)C(=O)N[C@@H](CCCCN)C(=O)N[C@@H](Cc1ccccc1)C(=O)N[C@@H](CCCCN)C(=O)N[C@@H](CC(=O)O)C(=O)N[C@@H](CC(N)=O)C(=O)N[C@H](C(=O)N[C@@H](C)C(=O)N1CCC[C@H]1C(=O)N[C@@H](CCCNC(=N)N)C(=O)N[C@@H](CO)C(=O)N[C@@H](CCCCN)C(=O)N[C@H](C(=O)N[C@@H](CO)C(=O)N1CCC[C@H]1C(=O)N[C@@H](CCC(N)=O)C(=O)N[C@H](C(=O)N1C[C@H](O)C[C@H]1C(N)=O)[C@@H](C)O)[C@@H](C)CC)C(C)C)[C@@H](C)O [compound 193] (H-GCRTGTCTVQRLAHQIHQFTDKFKDNVAPRSKISPQT[Hyp]-NH2; disulfide 2-7; N-terminus assumed) | 2.700 | > 5 |
| CC[C@H](C)[C@H](NC(=O)[C@H](CC(N)=O)NC(=O)[C@@H](NC(=O)[C@H](CCCNC(=N)N)NC(=O)[C@@H]1CCCN1C(=O)[C@H](C)NC(=O)[C@@H](NC(=O)[C@H](CC(N)=O)NC(=O)[C@H](CC(=O)O)NC(=O)[C@H](CCCCN)NC(=O)[C@H](CC(=O)O)NC(=O)[C@H](CCCCN)NC(=O)[C@H](CC(=O)O)NC(=O)[C@@H](NC(=O)[C@H](Cc1ccccc1)NC(=O)[C@H](CCC(N)=O)NC(=O)[C@H](Cc1ccc(O)cc1)NC(=O)[C@@H](NC(=O)[C@H](CCC(N)=O)NC(=O)[C@H](Cc1c[nH]cn1)NC(=O)[C@H](C)NC(=O)[C@H](CC(C)C)NC(=O)[C@H](Cc1c[nH]c2ccccc12)NC(=O)[C@H](CCC(N)=O)NC(=O)[C@@H](NC(=O)[C@@H](NC(=O)[C@@H]1CSSC[C@H](NC(=O)CN)C(=O)N[C@@H](CCCNC(=N)N)C(=O)N[C@@H]([C@@H](C)O)C(=O)NCC(=O)N[C@@H]([C@@H](C)O)C(=O)N1)[C@@H](C)O)C(C)C)[C@@H](C)CC)[C@@H](C)O)C(C)C)[C@@H](C)O)C(=O)NCC(=O)N1CCC[C@H]1C(=O)N[C@@H](CCC(N)=O)C(=O)NCC(=O)N[C@@H](Cc1ccc(O)cc1)C(N)=O [compound 356] (H-GCRTGTCTVQWLAHQIYQFTDKDKDNVAPRTNIGPQGY-NH2; disulfide 2-7) | 1.250 | > 5 |
| CC(C)C[C@H](NC(=O)[C@H](Cc1c[nH]c2ccccc12)NC(=O)[C@H](CCC(N)=O)NC(=O)[C@@H](NC(=O)[C@@H](NC(=O)[C@@H]1CSSC[C@H](NC(=O)CN)C(=O)N[C@@H](CCCNC(=N)N)C(=O)N[C@@H](Cc2ccccc2)C(=O)NCC(=O)N[C@@H]([C@@H](C)O)C(=O)N1)[C@@H](C)O)C(C)C)C(=O)N[C@@H](C)C(=O)N[C@@H](CC(N)=O)C(=O)N[C@@H](Cc1ccccc1)C(=O)N[C@@H](CC(C)C)C(=O)N[C@@H](Cc1ccc(O)cc1)C(=O)N[C@@H](CCC(N)=O)C(=O)N[C@@H](Cc1ccccc1)C(=O)N[C@H](C(=O)N[C@@H](CC(=O)O)C(=O)N[C@@H](CCCCN)C(=O)N[C@@H](CC(=O)O)C(=O)N[C@@H](CCCCN)C(=O)N[C@@H](CC(=O)O)C(=O)N[C@@H](CC(N)=O)C(=O)N[C@H](C(=O)N[C@@H](C)C(=O)N1CCC[C@H]1C(=O)N[C@@H](CCCNC(=N)N)C(=O)N[C@H](C(=O)N[C@@H](CC(N)=O)C(=O)N[C@H](C(=O)NCC(=O)N1CCC[C@H]1C(=O)N[C@@H](CCC(N)=O)C(=O)NCC(=O)N[C@@H](Cc1ccc(O)cc1)C(N)=O)C(C)C)[C@@H](C)O)C(C)C)[C@@H](C)O [compound 311] (H-GCRFGTCTVQWLANFLYQFTDKDKDNVAPRTNVGPQGY-NH2; disulfide 2-7; N-terminus assumed) | 6.450 | > 5 |
| CC[C@H](C)[C@@H]1NC(=O)[C@H](CCCNC(=N)N)NC(=O)[C@@H](NC(=O)CN)CSSC[C@@H](C(=O)N[C@H](C(=O)N[C@H](C(=O)N[C@@H](CCC(N)=O)C(=O)N[C@@H](Cc2c[nH]c3ccccc23)C(=O)N[C@@H](CC(C)C)C(=O)N[C@@H](C)C(=O)N[C@@H](Cc2c[nH]cn2)C(=O)N[C@@H](CCC(N)=O)C(=O)N[C@H](C(=O)N[C@@H](Cc2ccc(O)cc2)C(=O)N[C@@H](CCC(N)=O)C(=O)N[C@@H](Cc2ccccc2)C(=O)N[C@H](C(=O)N[C@@H](CC(=O)O)C(=O)N[C@@H](CCCCN)C(=O)N[C@@H](Cc2ccccc2)C(=O)N[C@@H](CCCCN)C(=O)N[C@@H](CC(=O)O)C(=O)N[C@@H](CC(N)=O)C(=O)N[C@H](C(=O)N[C@@H](C)C(=O)N2CCC[C@H]2C(=O)N[C@@H](CCCNC(=N)N)C(=O)N[C@@H](CO)C(=O)N[C@@H](CCCCN)C(=O)N[C@H](C(=O)N[C@@H](CO)C(=O)N2CCC[C@H]2C(=O)N[C@@H](CCC(N)=O)C(=O)N[C@H](C(=O)N2C[C@H](O)C[C@H]2C(N)=O)[C@@H](C)O)[C@@H](C)CC)C(C)C)[C@@H](C)O)[C@@H](C)CC)C(C)C)[C@@H](C)O)NC(=O)[C@H]([C@@H](C)O)NC(=O)CNC1=O [compound 351] (H-GCRIGTCTVQWLAHQIYQFTDKFKDNVAPRSKISPQT[Hyp]-NH2; disulfide 2-7; N-terminus assumed) | 7.200 | > 5 |
